Assays:
[1] = Concentrations of precipitation; format: physicochemical
Text: Table 1 α-Glucosidase inhibitory activity of compounds 9a–r. | column: Concentrations of precipitation (µM)

α-glucosidase [2] = target: T1, α-glucosidase (Saccharomyces cerevisiae, UniProt P53341); assay: α-Glucosidase inhibitory assay; details: for IC50: α-glucosidase inhibition, mean ± SD
Method: The α-glucosidase inhibitory activities of all synthesized derivatives were assayed according to the previously reported procedure[9],[36].

α-glucosidase [3] = target: T1, α-glucosidase; assay: Enzyme kinetic studies (Lineweaver–Burk plot, secondary plot); format: biochemical; details: Km increased, Vmax unchanged
Method: A Lineweaver–Burk plot was generated to identify the type of inhibition and the Michaelis–Menten constant (Km) value was determined from the plot between reciprocal of the substrate concentration (1/[S]) and reciprocal of enzyme rate (1/V) over various inhibitor concentrations. The experimental inhibitor constant (Ki) value was constructed by secondary plots of the inhibitor concentration [I] versus Km[6].

T1 sequence (P53341 whole entry): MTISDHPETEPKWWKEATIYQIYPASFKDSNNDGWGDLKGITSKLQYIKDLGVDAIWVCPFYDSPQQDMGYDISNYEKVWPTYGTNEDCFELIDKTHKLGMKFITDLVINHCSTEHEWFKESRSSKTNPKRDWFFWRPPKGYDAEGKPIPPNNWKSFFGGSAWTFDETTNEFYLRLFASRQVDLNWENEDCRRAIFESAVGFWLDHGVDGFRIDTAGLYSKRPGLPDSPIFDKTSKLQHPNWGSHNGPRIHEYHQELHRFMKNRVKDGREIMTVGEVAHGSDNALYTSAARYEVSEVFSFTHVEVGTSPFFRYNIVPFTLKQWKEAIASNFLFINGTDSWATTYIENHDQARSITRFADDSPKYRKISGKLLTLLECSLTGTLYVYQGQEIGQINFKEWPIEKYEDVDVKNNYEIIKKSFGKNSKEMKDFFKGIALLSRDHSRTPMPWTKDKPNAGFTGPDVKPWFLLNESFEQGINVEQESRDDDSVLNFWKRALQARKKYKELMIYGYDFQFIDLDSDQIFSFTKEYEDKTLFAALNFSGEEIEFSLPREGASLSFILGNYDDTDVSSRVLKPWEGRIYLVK

melting point [°C] | Concentrations of precipitation [1] [µM] | type of inhibition (α-glucosidase [3]) | fold loss of potency compared to 9a (α-glucosidase [2]; versus 9a) | Compound | IC50 (α-glucosidase [2]) [µM]
180 to 182 | ≥ 200 | – | – | O=C(CSc1nc2ccccc2cc1-c1nc2ccccc2[nH]1)Nc1ccc([N+](=O)[O-])cc1 [Compound 9i, 2-((3-(1H-benzo[d]imidazol-2-yl)quinolin-2-yl)thio)-N-(4-nitrophenyl)acetamide] | –
– | ≥ 200 | – | – | O=C(CSc1nc2ccccc2cc1-c1nc2ccccc2[nH]1)Nc1ccc2ccccc2c1 [Compound 9p, 2-((3-(1H-benzo[d]imidazol-2-yl)quinolin-2-yl)thio)-N-(naphthalen-2-yl)acetamide] | 17.7 ± 0.8
191 to 193 | ≥ 200 | – | – | COc1ccc(NC(=O)CSc2nc3ccccc3cc2-c2nc3ccccc3[nH]2)cc1 [Compound 9l, 2-((3-(1H-benzo[d]imidazol-2-yl)quinolin-2-yl)thio)-N-(4-methoxyphenyl)acetamide] | –
183 to 185 | ≥ 200 | – | – | O=C(CSc1nc2ccccc2cc1-c1nc2ccccc2[nH]1)NCc1ccccc1 [Compound 9q, 2-((3-(1H-benzo[d]imidazol-2-yl)quinolin-2-yl)thio)-N-benzylacetamide] | –
181 to 183 | ≥ 200 | – | – | O=C(CSc1nc2ccccc2cc1-c1nc2ccccc2[nH]1)Nc1ccccc1Br [Compound 9f, 2-((3-(1H-benzo[d]imidazol-2-yl)quinolin-2-yl)thio)-N-(2-bromophenyl)acetamide] | –
181 to 183 | ≥ 200 | – | – | Cc1ccc(NC(=O)CSc2nc3ccccc3cc2-c2nc3ccccc3[nH]2)cc1 [Compound 9k] | –
185 to 187 | ≥ 200 | – | – | Cc1cccc(NC(=O)CSc2nc3ccccc3cc2-c2nc3ccccc3[nH]2)c1C [Compound 9n, 2-((3-(1H-benzo[d]imidazol-2-yl)quinolin-2-yl)thio)-N-(2,3-dimethylphenyl)acetamide] | –
– | ≥ 200 | – | – | O=C(CSc1nc2ccccc2cc1-c1nc2ccccc2[nH]1)Nc1ccccc1 [Compound 9a, 2-((3-(1H-benzo[d]imidazol-2-yl)quinolin-2-yl)thio)-N-phenylacetamide] | –
190 to 192 | ≥ 200 | competitive inhibition | – | O=C(CSc1nc2ccccc2cc1-c1nc2ccccc2[nH]1)Nc1cccc(Cl)c1 [Compound 9d, 2-((3-(1H-benzo[d]imidazol-2-yl)quinolin-2-yl)thio)-N-(3-chlorophenyl)acetamide] | –
185 to 187 | ≥ 200 | – | – | O=C(CSc1nc2ccccc2cc1-c1nc2ccccc2[nH]1)Nc1ccc(Cl)cc1 [Compound 9e, 2-((3-(1H-benzo[d]imidazol-2-yl)quinolin-2-yl)thio)-N-(4-chlorophenyl)acetamide] | –
185 to 187 | ≥ 200 | – | – | Cc1cccc(C)c1NC(=O)CSc1nc2ccccc2cc1-c1nc2ccccc2[nH]1 [Compound 9o, 2-((3-(1H-benzo[d]imidazol-2-yl)quinolin-2-yl)thio)-N-(2,6-dimethylphenyl)acetamide] | –
178 to 180 | ≥ 200 | – | – | CCc1ccc(NC(=O)CSc2nc3ccccc3cc2-c2nc3ccccc3[nH]2)cc1 [Compound 9m, 2-((3-(1H-benzo[d]imidazol-2-yl)quinolin-2-yl)thio)-N-(4-ethylphenyl)acetamide] | –
183 to 185 | ≥ 200 | – | around the twofold loss of potency | O=C(CSc1nc2ccccc2cc1-c1nc2ccccc2[nH]1)Nc1ccccc1F [Compound 9b, 2-((3-(1H-benzo[d]imidazol-2-yl)quinolin-2-yl)thio)-N-(2-fluorophenyl)acetamide] | –
– | ≥ 200 | – | – | Cc1ccccc1NC(=O)CSc1nc2ccccc2cc1-c1nc2ccccc2[nH]1 [Compound 9j] | –
188 to 190 | ≥ 200 | – | – | O=C(CSc1nc2ccccc2cc1-c1nc2ccccc2[nH]1)Nc1c(Cl)cccc1Cl [Compound 9h, 2-((3-(1H-benzo[d]imidazol-2-yl)quinolin-2-yl)thio)-N-(2,6-dichlorophenyl)acetamide] | –
185 to 187 | ≥ 200 | – | – | O=C(CSc1nc2ccccc2cc1-c1nc2ccccc2[nH]1)Nc1ccc(Br)cc1 [Compound 9g, 2-((3-(1H-benzo[d]imidazol-2-yl)quinolin-2-yl)thio)-N-(4-bromophenyl)acetamide] | –
186 to 188 | ≥ 200 | – | – | O=C(CSc1nc2ccccc2cc1-c1nc2ccccc2[nH]1)NCc1ccc(F)cc1 [Compound 9r, 2-((3-(1H-benzo[d]imidazol-2-yl)quinolin-2-yl)thio)-N-(4-fluorobenzyl)acetamide] | –

Compound | melting point [°C] | Concentrations of precipitation [1] [µM] | type of inhibition (α-glucosidase [3]) | fold loss of potency compared to 9a (α-glucosidase [2]; versus 9a) | IC50 (α-glucosidase [2]) [µM]
2-((3-(1H-benzo[d]imidazol-2-yl)naphthalen-2-yl)thio)-N-(4-fluorophenyl)acetamide [Compound 9c] | – | ≥ 200 | – | – | 13.5 ± 0.6

Reference: paper PMC9386204, “Design, synthesis, and in silico studies of quinoline-based-benzo[d]imidazole bearing different acetamide derivatives as potent α-glucosidase inhibitors” (Scientific Reports, 2022)
